Reference: patent US6358885B1, “Substituted phenylheterocyclic herbicides” (Mississippi State University, priority 1992, dated 2002)

Experiments:
Test in all cases: Test B preemergence/postemergence greenhouse plant response rating 0 to 10
Conditions in all cases: 0 to 10 scale
[1] = test system: chickweed; assay type: in vivo, Stellaria media
Description: (§1) Seeds of barley (Hordeum vulgare), barnyardgrass (Echinochloa crus-galli), bedstraw (Galium aparine), blackgrass (Alopecurus myosuroides), […] (Bromus secalinus), chickweed (Stellaria media), cocklebur (Xanthium pensylvanicum), corn (Zea mays), cotton (Gossypium hirsutum), crabgrass (Digitaria spp.), giant foxtail (Setaria faberii), lambsquarters (Chenopodium album), morningglory (Ipomoea hederacea), rape (Brassica napus), rice (Oryza sativa), sorghum (Sorghum bicolor), soybean (Glycine max), sugar beet (Beta vulgaris), velvetleaf (Abutilon theophrasti), wheat (Triticum aestivum), wild buckwheat (Polygonum convolvulus), and wild oat (Avena fatua) and purple nutsedge. (Cyperus rotundus) tubers were planted and treated preemergence with test chemicals dissolved in a non-phytotoxic solvent. At the same time, these crop and weed species were also treated with postemergence applications of test chemicals. Plants ranged in height from two to eighteen cm (one to four leaf stage) for postemergence treatments. Treated plants and controls were maintained in a greenhouse for twelve to sixteen days, after which all species were compared to controls and visually evaluated. […] A dash (-) response means no test result.

[2] = test system: wild oat; assay type: in vivo, Avena fatua
Description: as §1

[3] = test system: wheat; assay type: in vivo, Triticum aestivum
Description: as §1

[4] = test system: cocklebur; assay type: in vivo, Xanthium pensylvanicum
Description: as §1

[5] = test system: velvetleaf; assay type: in vivo, Abutilon theophrasti
Description: as §1

[6] = test system: bedstraw; assay type: in vivo, Galium aparine
Description: as §1

[7] = test system: giant foxtail; assay type: in vivo, Setaria faberii
Description: as §1

[8] = test system: wild buckwheat; assay type: in vivo, Polygonum convolvulus
Description: as §1

[9] = test system: purple nutsedge; assay type: in vivo, Cyperus rotundus
Description: as §1

[10] = test system: rice; assay type: in vivo, Oryza sativa
Description: as §1

[11] = test system: cotton; assay type: in vivo, Gossypium hirsutum
Description: as §1

[12] = test system: barley; assay type: in vivo, Hordeum vulgare
Description: as §1

[13] = test system: cheatgrass; assay type: in vivo, Bromus secalinus
Description: as §1

[14] = test system: barnyardgrass; assay type: in vivo, Echinochloa crus-galli
Description: as §1

[15] = test system: morningglory; assay type: in vivo, Ipomoea hederacea
Description: as §1

[16] = test system: crabgrass; assay type: in vivo, Digitaria spp.
Description: as §1

[17] = test system: blackgrass; assay type: in vivo, Alopecurus myosuroides
Description: as §1

[18] = test system: sorghum; assay type: in vivo, Sorghum bicolor
Description: as §1

[19] = test system: sugar beet; assay type: in vivo, Beta vulgaris
Description: as §1

[20] = test system: soybean; assay type: in vivo, Glycine max
Description: as §1

[21] = test system: lambsquarters; assay type: in vivo, Chenopodium album
Description: as §1

[22] = test system: corn; assay type: in vivo, Zea mays
Description: as §1

[23] = test system: rape; assay type: in vivo, Brassica napus
Description: as §1

With `C=CCOc1cc(-c2nn3c(c2Br)CCCC3)c(F)cc1Cl` [Compound 37] the “Plant response rating, Chickweed” value ([1]; POSTEMERGENCE, Rate 50 g/ha) was 5, the “Plant response rating, Chickweed” value ([1]; POSTEMERGENCE, Rate 200 g/ha) was 10 and the “Plant response rating, Chickweed” value ([1]; Rate 200 g/ha, PREEMERGENCE) was 9. The “Plant response rating, Wild oat” value ([2]; POSTEMERGENCE, Rate 50 g/ha) was 4, the “Plant response rating, Wild oat” value ([2]; PREEMERGENCE, Rate 50 g/ha) was 2 and the “Plant response rating, Wild oat” value ([2]; Rate 200 g/ha, POSTEMERGENCE) was 6. For the same compound, the “Plant response rating, Wheat” value ([3]; POSTEMERGENCE, Rate 50 g/ha) was 4, the “Plant response rating, Wheat” value ([3]; PREEMERGENCE, Rate 50 g/ha) was 0 and the “Plant response rating, Wheat” value ([3]; Rate 200 g/ha, POSTEMERGENCE) was 5. The “Plant response rating, Wheat” value ([3]; Rate 200 g/ha, PREEMERGENCE) was 3, the “Plant response rating, Cocklebur” value ([4]; POSTEMERGENCE, Rate 50 g/ha) was 7 and the “Plant response rating, Cocklebur” value ([4]; POSTEMERGENCE, Rate 200 g/ha) was 10. The “Plant response rating, Cocklebur” value ([4]; PREEMERGENCE, Rate 50 g/ha) was 0, the “Plant response rating, Cocklebur” value ([4]; Rate 200 g/ha, PREEMERGENCE) was 0 and the “Plant response rating, Velvetleaf” value ([5]; POSTEMERGENCE, Rate 50 g/ha) was 10. For the same compound, the “Plant response rating, Velvetleaf” value ([5]; PREEMERGENCE, Rate 50 g/ha) was 1, the “Plant response rating, Velvetleaf” value ([5]; Rate 200 g/ha, POSTEMERGENCE) was 10 and the “Plant response rating, Velvetleaf” value ([5]; Rate 200 g/ha, PREEMERGENCE) was 9. The “Plant response rating, Bedstraw” value ([6]; POSTEMERGENCE, Rate 50 g/ha) was 7, the “Plant response rating, Bedstraw” value ([6]; POSTEMERGENCE, Rate 200 g/ha) was 10 and the “Plant response rating, Bedstraw” value ([6]; Rate 200 g/ha, PREEMERGENCE) was 8. The “Plant response rating, Giant foxtail” value ([7]; POSTEMERGENCE, Rate 50 g/ha) was 5, the “Plant response rating, Giant foxtail” value ([7]; PREEMERGENCE, Rate 50 g/ha) was 2 and the “Plant response rating, Giant foxtail” value ([7]; Rate 200 g/ha, POSTEMERGENCE) was 6. For the same compound, the “Plant response rating, Giant foxtail” value ([7]; Rate 200 g/ha, PREEMERGENCE) was 5, the “Plant response rating, Wild buckwheat” value ([8]; POSTEMERGENCE, Rate 50 g/ha) was 9 and the “Plant response rating, Wild buckwheat” value ([8]; PREEMERGENCE, Rate 50 g/ha) was 9. For the same compound, the “Plant response rating, Wild buckwheat” value ([8]; Rate 200 g/ha, POSTEMERGENCE) was 10, the “Plant response rating, Wild buckwheat” value ([8]; Rate 200 g/ha, PREEMERGENCE) was 10 and the “Plant response rating, Nutsedge” value ([9]; POSTEMERGENCE, Rate 50 g/ha) was 2. For the same compound, the “Plant response rating, Nutsedge” value ([9]; PREEMERGENCE, Rate 50 g/ha) was 0, the “Plant response rating, Nutsedge” value ([9]; Rate 200 g/ha, POSTEMERGENCE) was 4 and the “Plant response rating, Nutsedge” value ([9]; Rate 200 g/ha, PREEMERGENCE) was 0. The “Plant response rating, Rice” value ([10]; POSTEMERGENCE, Rate 50 g/ha) was 5, the “Plant response rating, Rice” value ([10]; PREEMERGENCE, Rate 50 g/ha) was 0 and the “Plant response rating, Rice” value ([10]; Rate 200 g/ha, POSTEMERGENCE) was 6. The “Plant response rating, Rice” value ([10]; Rate 200 g/ha, PREEMERGENCE) was 0, the “Plant response rating, Cotton” value ([11]; POSTEMERGENCE, Rate 50 g/ha) was 10 and the “Plant response rating, Cotton” value ([11]; POSTEMERGENCE, Rate 200 g/ha) was 10. The “Plant response rating, Cotton” value ([11]; PREEMERGENCE, Rate 50 g/ha) was 0, the “Plant response rating, Cotton” value ([11]; Rate 200 g/ha, PREEMERGENCE) was 7 and the “Plant response rating, Barley” value ([12]; POSTEMERGENCE, Rate 50 g/ha) was 4. For the same compound, the “Plant response rating, Barley” value ([12]; POSTEMERGENCE, Rate 200 g/ha) was 6, the “Plant response rating, Barley” value ([12]; PREEMERGENCE, Rate 50 g/ha) was 0 and the “Plant response rating, Barley” value ([12]; Rate 200 g/ha, PREEMERGENCE) was 0. The “Plant response rating, Cheatgrass” value ([13]; POSTEMERGENCE, Rate 50 g/ha) was 4, the “Plant response rating, Cheatgrass” value ([13]; POSTEMERGENCE, Rate 200 g/ha) was 7 and the “Plant response rating, Cheatgrass” value ([13]; PREEMERGENCE, Rate 50 g/ha) was 5. The “Plant response rating, Cheatgrass” value ([13]; Rate 200 g/ha, PREEMERGENCE) was 6, the “Plant response rating, Barnyardgrass” value ([14]; POSTEMERGENCE, Rate 50 g/ha) was 5 and the “Plant response rating, Barnyardgrass” value ([14]; POSTEMERGENCE, Rate 200 g/ha) was 7. For the same compound, the “Plant response rating, Barnyardgrass” value ([14]; PREEMERGENCE, Rate 50 g/ha) was 0, the “Plant response rating, Barnyardgrass” value ([14]; Rate 200 g/ha, PREEMERGENCE) was 4 and the “Plant response rating, Morningglory” value ([15]; POSTEMERGENCE, Rate 50 g/ha) was 7. The “Plant response rating, Morningglory” value ([15]; PREEMERGENCE, Rate 50 g/ha) was 0, the “Plant response rating, Morningglory” value ([15]; Rate 200 g/ha, POSTEMERGENCE) was 8 and the “Plant response rating, Morningglory” value ([15]; Rate 200 g/ha, PREEMERGENCE) was 1. For the same compound, the “Plant response rating, Crabgrass” value ([16]; POSTEMERGENCE, Rate 50 g/ha) was 4, the “Plant response rating, Crabgrass” value ([16]; POSTEMERGENCE, Rate 200 g/ha) was 5 and the “Plant response rating, Crabgrass” value ([16]; PREEMERGENCE, Rate 50 g/ha) was 0. For the same compound, the “Plant response rating, Crabgrass” value ([16]; Rate 200 g/ha, PREEMERGENCE) was 7, the “Plant response rating, Blackgrass” value ([17]; POSTEMERGENCE, Rate 50 g/ha) was 4 and the “Plant response rating, Blackgrass” value ([17]; POSTEMERGENCE, Rate 200 g/ha) was 7. The “Plant response rating, Blackgrass” value ([17]; PREEMERGENCE, Rate 50 g/ha) was 0, the “Plant response rating, Blackgrass” value ([17]; Rate 200 g/ha, PREEMERGENCE) was 6 and the “Plant response rating, Sorghum” value ([18]; POSTEMERGENCE, Rate 50 g/ha) was 5. The “Plant response rating, Sorghum” value ([18]; PREEMERGENCE, Rate 50 g/ha) was 0, the “Plant response rating, Sorghum” value ([18]; Rate 200 g/ha, POSTEMERGENCE) was 6 and the “Plant response rating, Sorghum” value ([18]; Rate 200 g/ha, PREEMERGENCE) was 1. The “Plant response rating, Sugar beet” value ([19]; POSTEMERGENCE, Rate 50 g/ha) was 10, the “Plant response rating, Sugar beet” value ([19]; PREEMERGENCE, Rate 50 g/ha) was 9 and the “Plant response rating, Sugar beet” value ([19]; Rate 200 g/ha, POSTEMERGENCE) was 10. The “Plant response rating, Sugar beet” value ([19]; Rate 200 g/ha, PREEMERGENCE) was 9, the “Plant response rating, Soybean” value ([20]; POSTEMERGENCE, Rate 50 g/ha) was 5 and the “Plant response rating, Soybean” value ([20]; PREEMERGENCE, Rate 50 g/ha) was 0. The “Plant response rating, Soybean” value ([20]; Rate 200 g/ha, POSTEMERGENCE) was 6, the “Plant response rating, Soybean” value ([20]; Rate 200 g/ha, PREEMERGENCE) was 4 and the “Plant response rating, Lambsquarter” value ([21]; POSTEMERGENCE, Rate 50 g/ha) was 9. The “Plant response rating, Lambsquarter” value ([21]; PREEMERGENCE, Rate 50 g/ha) was 10, the “Plant response rating, Lambsquarter” value ([21]; Rate 200 g/ha, POSTEMERGENCE) was 10 and the “Plant response rating, Lambsquarter” value ([21]; Rate 200 g/ha, PREEMERGENCE) was 10. For the same compound, the “Plant response rating, Corn” value ([22]; POSTEMERGENCE, Rate 50 g/ha) was 6, the “Plant response rating, Corn” value ([22]; POSTEMERGENCE, Rate 200 g/ha) was 8 and the “Plant response rating, Corn” value ([22]; PREEMERGENCE, Rate 50 g/ha) was 0. The “Plant response rating, Corn” value ([22]; Rate 200 g/ha, PREEMERGENCE) was 3, the “Plant response rating, Rape” value ([23]; POSTEMERGENCE, Rate 50 g/ha) was 9 and the “Plant response rating, Rape” value ([23]; Rate 200 g/ha, POSTEMERGENCE) was 10. For the same compound, the “Plant response rating, Rape” value ([23]; Rate 200 g/ha, PREEMERGENCE) was 6.
